According to article PMC12040169 (PLOS Biology, 2025):

Test: in vitro
Conditions: human, hela cells, % viability

Compound	viability at 28.5 h, 10 µM [%]
Cc1ccccc1CSCC(=O)NCCN1CCOCC1 [CBK269207]	103
O=C(O)c1ccc(CSc2nnc(Cc3ccccc3)[nH]2)o1 [CBK269208]	99.3
N#Cc1cc(SCCC(=O)O)c(N2CCOCC2)cc1C#N [CBK269212]	96.3
CC(Sc1ccccc1)C(=O)NCCCN1CCOCC1 (stereo not shown) [CBK269214]	106
Cc1ccc(OCCCSc2nnc(N)[nH]2)cc1 [CBK269215A]	89.1
Nc1c(C(=O)NCC2CCCO2)c2nc3ccccc3nc2n1C1CCCC1 (stereo not shown) [CBK269217]	112
Cc1ccccc1C(=O)NCCNC(=O)c1cccnc1 [CBK269222]	96.2
COc1ccc(OC)c(S(=O)(=O)N2CCCC(C(=O)O)C2)c1 (stereo not shown) [CBK269225]	95
CCOc1ccc(-c2noc(CCC(=O)NC)n2)cc1OC [CBK269226]	86.4
O=C(Cc1ccccc1)Nc1ccccc1C(=O)NCc1cccnc1 [CBK269228]	96.1
CC(Sc1nc(N(C)C)nc(N2CCOCC2)n1)C(=O)Nc1ccc(Cl)c(Cl)c1 (stereo not shown) [CBK269229]	110
Cc1ccc2nsnc2c1NC(=O)CN1CCN(c2ccc(F)cc2)CC1 [CBK269231]	98.9
Cn1c(=O)[nH]c(=O)c2c1nc(SCCN1CCOCC1)n2CCCc1ccccc1 [CBK269234]	95.5
Cc1ccc2[nH]cc(CCNC(=O)c3cccc(NC(=O)c4ccccc4)c3)c2c1 [CBK269235]	86.6
CCN1CCN(Cc2nc3c(c(=O)n(C)c(=O)n3C)n2Cc2c(F)cccc2Cl)CC1 [CBK269236]	108
O=S(=O)(N1CCCCCC1)n1ccnc1 [CBK269241]	92.1
CCOc1ccc(CN2CCNC(=O)C2CC(=O)O)cc1 (stereo not shown) [CBK269242]	107
CCNc1nc2c(c(=O)[nH]c(=O)n2C)n1CCCc1ccccc1 [CBK269243]	94.6
O=C(CCNS(=O)(=O)c1ccc(Cl)cc1)Nc1ccncc1 [CBK269244]	99.4
O=C(O)c1ccc2c(c1)C(=O)N(CCCN1CCOCC1)C2=O [CBK269245]	102
O=C(CN1C(=O)c2ccccc2C1=O)Nc1ccccc1C(=O)N1CCN(c2ccccc2)CC1 [CBK269251]	118
Cc1c(Cl)cccc1N1CCN(S(=O)(=O)CC23CCC(CC2=O)C3(C)C)CC1 (stereo not shown) [CBK269257]	96.1
NC1=C(c2ccccc2)C(=O)CN1NC(=O)COc1ccccc1-c1ccccc1 [CBK269258]	95.1

Compound	viability at 28.5 h, 10 µM [%]
Cc1sc2nc(N)c(C(=O)NC(C)C)cc2c1C [CBK269259]	115
O=C(O)c1cccc(-n2c(S)nnc2-c2ccncc2)c1 [CBK269260]	105
CCN(CC)CCNC(=O)c1cc(O)nc2ccccc12 [CBK269261]	99.6
O=C(O)COc1c(-c2ccco2)oc2ccccc2c1=O [CBK269262]	96.9
CCN1CCN(C(=O)CN(Cc2ccc(Cl)cc2)S(C)(=O)=O)CC1 [CBK269263]	82.8
O=C(O)CSc1nc2c(-c3ccco3)c3c(nc2o1)CCCC3 [CBK269266]	104
Cc1ccc(NS(=O)(=O)c2cc(C(=O)N3CCN(C)CC3)ccc2C)cc1C [CBK269268]	91.2
C/C=C/c1ccc(OCCCn2nnc3ccccc32)c(OC)c1 [CBK269271]	86
Cc1nonc1NC(=O)CSc1nc2ccccc2[nH]1 [CBK269273]	101
COc1ccc(S(=O)(=O)NC(C)C(=O)NCc2ccccn2)cc1Cl (stereo not shown) [CBK269275]	101
Cn1c(=O)c2c(nc(CN3CCN(C(=O)c4ccco4)CC3)n2CCc2ccccc2)n(C)c1=O [CBK269278]	80.6
O=S(=O)(NN1CCOCC1)c1cc(Cl)cc(Cl)c1O [CBK269279]	89.8
O=C(NCc1ccccc1)c1ccccc1NC(=O)C1CCCCC1C(=O)O (stereo not shown) [CBK269283]	92
Cc1cc(Br)ccc1NC(=O)C(=O)NC1CC1 [CBK269284]	83.6
O=C(O)c1cc(-n2c(S)nnc2-c2cnccn2)ccc1Cl [CBK269285]	86.2
CN(C)CCN1C(=O)C2C3c4ccccc4C([N+](=O)[O-])(c4ccccc43)C2C1=O (stereo not shown) [CBK269286]	81.4
Cc1cccc(OCC(=O)Nc2ccc(-c3nc4ncccc4o3)cc2C)c1 [CBK269287]	87.3
Cc1nnc(SCCn2c(N3CCCCC3)nc3c2c(=O)n(C)c(=O)n3C)s1 [CBK269288]	103
COc1ccc(OC(=O)COc2nc3c(C)cc(C)nc3[nH]2)cc1 [CBK269290]	106
CC1CCN(Cc2nc3c(c(=O)n(C)c(=O)n3C)n2CCN2CCOCC2)CC1 [CBK269291]	108
O=C1CC(c2ccco2)Cc2c1cnn2-c1nc2ccccc2s1 (stereo not shown) [CBK269292]	81.4
CCN(CC(=O)N1CCN(C)CC1)S(=O)(=O)c1cc(Cl)ccc1Cl [CBK269297]	104
CC1CN(Cc2nc3c(c(=O)n(C)c(=O)n3C)n2CCCO)CC(C)O1 (stereo not shown) [CBK269298]	99

Compound	viability at 28.5 h, 10 µM [%]
CCCCOc1ccccc1NC(=O)CC1NCCNC1=O (stereo not shown) [CBK269299]	94.7
O=S(=O)(N1CCOCC1)N1CCN(CC(O)COc2ccc(-c3ccccc3)cc2)CC1 (stereo not shown) [CBK269301]	106
CC(=O)Nc1ccc(Oc2c(F)c(F)c(/C=C/CN3CCOCC3)c(F)c2F)cc1 [CBK269302C]	89
O=[N+]([O-])c1ccc(S(=O)(=O)N2CCC3(CC2)OCCO3)cc1 [CBK269303]	97.5
CC(C)(C)C(=O)NC(=S)NNC(=O)c1ccncc1 [CBK269304]	90.6
O=C(O)c1cccnc1SC1CC(=O)N(c2cccc(Cl)c2Cl)C1=O (stereo not shown) [CBK269306]	110
COC(=O)c1c(NC(=O)CC2Nc3ccccc3NC2=O)sc2c1CCC2 (stereo not shown) [CBK269307A]	93.7
CS(=O)(=O)N1CCCC(C(=O)NCc2ccccn2)C1 (stereo not shown) [CBK269308]	101
CCOc1cc(CNCCO)c(Cl)cc1OC [CBK269309C]	102
CNc1cc(N2CCN(S(=O)(=O)N(C)C)CC2)ccc1[N+](=O)[O-] [CBK269311]	89.8
Cc1ccc(-c2noc(CN(C(=O)CCc3ccccc3)C(C)C)n2)cc1 [CBK269313]	99.3
Cc1ccc(SCc2ccc(C(=O)NCCN3CCOCC3)cc2)cc1 [CBK269314]	98.7
CC(Sc1ccc(Cl)cc1)C(=O)NCCN1CCOCC1 (stereo not shown) [CBK269316]	111
CN(C)CCCNc1oc(/C=C/c2cccs2)nc1C#N [CBK269317]	86.7
CCN(CC)CCN1C(=O)C(O)=C(C(=O)c2cccs2)C1c1ccccn1 (stereo not shown) [CBK269319]	76.3
NS(=O)(=O)c1ccc(NC(=O)CCSc2ccc(Cl)cc2)cc1 [CBK269322]	94.4
Nc1c(C(=O)NCc2ccco2)c2nc3ccccc3nc2n1C1CCCC1 [CBK269323]	106
COCCN(Cc1cc2ccc(C)cc2nc1O)C(=O)c1cccs1 [CBK269324]	100
CCOC(=O)N1CCN(Cc2nc3c(c(=O)n(C)c(=O)n3C)n2Cc2ccccc2C)CC1 [CBK269325]	91.8
Cc1ccc(CSCC(=O)NCCN2CCOCC2)cc1 [CBK269327]	90.4
CC(Sc1ccccc1)C(=O)NCCN1CCOCC1 (stereo not shown) [CBK269332]	95.9
Cc1ccc(OCCSc2nnc(N)[nH]2)cc1 [CBK269334]	98.9
Cc1ccc(C(=O)CC(C(=O)O)c2c(C)[nH]c3ccccc23)cc1 (stereo not shown) [CBK269337]	96.1

Compound	viability at 28.5 h, 10 µM [%]
COC(=O)C(CC(=O)c1ccc(Br)cc1)n1cccn1 (stereo not shown) [CBK269338]	104
COc1ccccc1CC(=O)N(Cc1nc(-c2cccc(C)c2)no1)C(C)C [CBK269345]	95.7
O=C(CSc1nnc(-c2ccncc2)n1Cc1ccccc1)Nc1ccc(Cl)cc1 [CBK269346]	97.3
COc1ccc(S(=O)(=O)NC(C)C(=O)NCc2ccncc2)cc1C (stereo not shown) [CBK269347]	101
CC1CN(Cc2nc3c(c(=O)n(C)c(=O)n3C)n2CCCc2ccccc2)CC(C)O1 (stereo not shown) [CBK269349]	91.7
O=C(Nc1ccccc1C(=O)NCc1ccccc1)c1cccc(F)c1 [CBK269351]	88.9
O=C(CCSc1ccc(Cl)cc1)NCCN1CCOCC1 [CBK269352]	98.2
Cc1ccnc(Sc2nc3c(c(=O)[nH]c(=O)n3C)n2CCCc2ccccc2)n1 [CBK269353]	79.4
CCOC(=O)c1cccc(NC(=O)CSc2nc3cccnc3[nH]2)c1 [CBK269354]	95.1
COc1ccc(C)cc1S(=O)(=O)N(CC(=O)N1CCN(C)CC1)c1cccc(C(F)(F)F)c1 [CBK269355]	96.2
COc1nc2ccccc2nc1CCC(=O)O [CBK269356]	89.1
OCCn1ncc2c(SC3CCCCC3)ncnc21 [CBK269358]	87.8
N#Cc1c(NC(=O)C(=O)NCc2ccccn2)sc2c1CCCC2 [CBK269360]	95.9
O=S(=O)(Nc1cccnc1)N1CCOCC1 [CBK269362]	97.9
CCCn1c(CN2CCN(CCO)CC2)nc2ccccc21 [CBK269363]	110
Cc1cccnc1NC(=O)c1ccc(N2CCN(C)CC2)c([N+](=O)[O-])c1 [CBK269366]	95.4
Cc1ccccc1OC(C)C(=O)Nc1ccc(S(=O)(=O)N2CCCC2)cc1 (stereo not shown) [CBK269367]	89.7
Cc1cccc(N2CCN(CC(=O)Nc3ccc(S(N)(=O)=O)cc3)CC2)c1C [CBK269369]	96.8
O=S(=O)(N1CCCCC1)N1CCN(CC(O)COc2ccc(-c3ccccc3)cc2)CC1 (stereo not shown) [CBK269370]	94.9
Cc1cc(C)nc(-n2ncc3c2CC(c2cccs2)CC3=O)n1 (stereo not shown) [CBK269371]	107
COc1ccc(/C=C/c2nc3ccccc3s2)cc1S(=O)(=O)N1CCOCC1 [CBK269373]	89.9
C=CCn1c(CCCNC=O)nc2ccccc21 [CBK269375]	94.2
